Data taken from paper PMC7663263 (Molecules, 2020).

How the values were obtained:
S. mansoni TGR = biological target: T1, S. mansoni TGR (Schistosoma mansoni, UniProt Q962Y6); experiment: biochemical; conditions: 40 nM enzyme, 3 mM DTNB; after 10 min preincubation; read-out: IC50 S. mansoni TGR, substrate DTNB (original data)
T1 construct: made in house; host or cells: E. coli
T1 sequence (Q962Y6 1-598): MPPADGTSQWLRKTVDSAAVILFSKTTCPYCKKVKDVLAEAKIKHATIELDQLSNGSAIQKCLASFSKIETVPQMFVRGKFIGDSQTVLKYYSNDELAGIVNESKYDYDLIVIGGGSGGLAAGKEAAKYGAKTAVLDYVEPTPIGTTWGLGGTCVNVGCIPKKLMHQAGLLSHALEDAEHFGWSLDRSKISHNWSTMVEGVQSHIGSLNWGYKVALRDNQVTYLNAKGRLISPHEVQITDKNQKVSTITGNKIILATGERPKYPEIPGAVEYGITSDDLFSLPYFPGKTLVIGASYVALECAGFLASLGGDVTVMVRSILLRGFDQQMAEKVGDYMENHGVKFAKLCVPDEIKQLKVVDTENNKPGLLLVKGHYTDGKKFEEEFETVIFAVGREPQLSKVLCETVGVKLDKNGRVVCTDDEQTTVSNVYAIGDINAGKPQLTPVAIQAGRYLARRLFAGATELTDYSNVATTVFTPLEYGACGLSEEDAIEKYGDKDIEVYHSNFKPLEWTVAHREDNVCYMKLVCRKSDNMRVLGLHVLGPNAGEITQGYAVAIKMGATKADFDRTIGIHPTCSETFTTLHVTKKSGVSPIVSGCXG
Procedure: (§1) Enzymes were prepared in E. coli as described. Assays were performed at 25 °C in 0.1 M potassium phosphate (pH 7.4), 10 mM EDTA using 100 μM NADPH and 3 mM dithiobis(2-nitrobenzoic acid) (DTNB). […] The increase in A412 during the first 3 min was recorded upon DTNB addition. The reaction was done in triplicate.

B. pahangi TrxR = B. pahangi TrxR enzyme assay, DTNB reduction (original data); format: biochemical, Brugia pahangi; conditions: 100 nM enzyme, 3 mM DTNB; after 10 min preincubation; read-out: IC50 B. pahangi TrxR, substrate DTNB (original data)
Procedure: as §1

BL3 cells [1] = format: cell-based, bovine
Procedure: (§2) Theileria annulata culture: The TBL3 cell line was derived by in vitro infection of the spontaneous bovine B-lymphosarcoma cell line BL3 with the Hissar stock of T. annulata. B cell characteristics of the lines have been described. The cells are maintained at 37 °C under 5% CO2, in RPMI medium supplemented with 10% FCS, 25 mM Hepes, 4 mM L-glutamine, 100 μg/mL of streptomycin, 100 IU/mL of penicillin and […] 2-mercapthoethanol.
(§3) Cells were cultured in 12-well plates at an initial density of 200,000 cells per well in duplicate for each condition. […] The cells were cultured in 12-well plates at an initial density of 200,000 cells per well and drug was added every 24 h. To be able to compare the results, a drug-free control was also performed. Cell counting was done at 24, 72 and 96 h using the trypan blue method.

BL3 cells [2] = experiment: Proliferation test on non-infected BL3 cells; format: cell-based, bovine; conditions: […] and 0.5 μM
Procedure: as §2, §3

[3] = system: T. b. gambiense (ITMAP/1893); experiment: Anti-trypanosomal activity, T. b. gambiense trypomastigotes (resazurin); format: cell-based, Trypanosoma brucei gambiense; conditions: 72 h, read-out: T. b. gambiense IC50 (µM) ± SD
Procedure: Anti-trypanosomal activity: T. b. brucei Squib-427 strain (suramin-sensitive) and T. b. gambiense (ITMAP/1893) were cultured at 37 °C and 5% CO2 in HMI-9 medium supplemented with 10% FCS [90]. About 10^4 trypomastigotes/well were added to each well and parasite growth was assessed after 72 h at 37 °C by adding resazurin and reading at ex 550 nm, em 590 nm. Suramin was included as reference drug for T. b. brucei and pentamidine for T. b. gambiense.

O. ochengi adult female = experiment: Onchocerca ochengi adult female worm assay (MTT/formazan); format: cell-based; conditions: 10 μM; females assessed by MTT/formazan assay
Procedure: Onchocerca ochengi adult worm assays: For O. ochengi worm assays, subcutaneous nodules containing adult O. ochengi worms were removed from the hides of infected cows collected at abattoirs in Douala, Cameroon. Masses were incubated in 4 mL of complete culture medium (RPMI-1640, 5% newborn calf serum, 200 units/mL penicillin, 200 μg/mL streptomycin and 2.5 μg/mL amphotericin B) in standard 12-well culture plates and maintained in a 37 °C, 5% CO2 incubator overnight during which time the adult males migrated out of the masses while the females remained in the nodules. Compound and control wells (worms in 1% DMSO) were tested in quadruplicate and experiments were repeated twice on different days. Cultures were terminated on day 7. […] Adult female worm viability was assessed on day 7 by the standard MTT/formazan assay in which each nodular mass was placed in a well of a 48-well plate containing 500 μL of 0.5 mg/mL MTT (Sigma-Aldrich) in culture medium. Viability was evaluated visually by the extent to which the female worm mass was stained with MTT. Mean percent inhibition of formazan formation was calculated relative to the negative control worm masses after 7 days in culture.

[4] = system: L. infantum MHOM/MA (BE)/67 amastigotes; experiment: Anti-leishmanial activity, L. infantum amastigotes in primary peritoneal mouse macrophages; format: cell-based, Leishmania infantum; conditions: amastigotes in primary peritoneal mouse macrophages, 5 days; read-out: Leishmania infantum IC50 (µM) ± SD
Procedure: Anti-leishmanial activity: L. infantum MHOM/MA (BE)/67 amastigotes were collected from the spleen of an infected donor hamster and used to infect primary peritoneal mouse macrophages grown in a 96-well plate. After 2 days outgrowth, 5 × 10^5 amastigotes were added to each well and incubated for 2 h at 37 °C. The compounds were subsequently added and the plates were further incubated for 5 days at 37 °C and 5% CO2. Parasite burdens (mean number of amastigotes/macrophage) were microscopically assessed on 500 cells after Giemsa staining and expressed as a percentage of the blank controls. Miltefosine was included as reference drug. The use of laboratory rodents was carried out in accordance to all mandatory guidelines (EU directives, including the Revised Directive 2010/63/EU on the Protection of Animals used for Scientific Purposes that came into force on 1 January 2013, and the declaration of Helsinki in its latest version) and was approved by the Ethical Committee of the University of Antwerp, Belgium [UA-ECD 2011–77 (17-02-2012 and UA-ECD 2015-90].

Which results are given for `CC(=O)OCC1OC([S][Au][PH]2(c3ccccc3)C(c3ccccn3)=CC=C2c2ccccn2)C(OC(C)=O)C(OC(C)=O)C1OC(C)=O` [GoPI-sugar, 1-thio-β-D-glucopyranose 2,3,4,6-tetraacetato-S-Au{1-phenyl-2,5-di(2-pyridyl)phosphole}]?
IC50 (S. mansoni TGR): 12.5 nM; IC50 (B. pahangi TrxR): 5.5 nM; CC50 (BL3 cells [1]): ~500 nM; proliferation of BL3 compared to untreated BL3 cells (BL3 cells [2]): dampened; IC50 [3]: 1.11 ± 0.12 µM; % Inhibition of Motility O. ochengi Adult Female Day 7 (O. ochengi adult female): 51%; IC50 [4]: 2.38 µM
